Source: BindingDB's records for doi:10.1016/j.bmcl.2006.07.014 (Glaxosmithkline, 2006)

Target: T1, Dimer of Gag-Pol polyprotein [501-599,Q508K,L534I,L564I,C568A,C596A] (Human immunodeficiency virus 1, UniProt P03367, C568A/C596A/L534I/L564I/Q508K)
T1 construct: 501-599
Test: Protease Inhibition Assay
Settings: pH 6.4; 25 °C
Method: The Ki values were determined using fluorogenic substrate, 2-(aminobenzoyl)-Thr-Ile-Nle-Phe(p-NO2)-Gln-ArgNH2. A standard curve relating changes in fluorescent intensity to changes in concentration of product was used to convert fluorescent changes into molar velocities. The amount of cleavage was determined by HPLC.

| SMILES | Ki [nM] |
| --- | --- |
| COc1ccc(S(=O)(=O)N(CC2CCCC2)C[C@@H](O)CN2C(=O)C3(CCOCC3)OC[C@@H]2Cc2ccccc2)cc1 [(2S)-3-[(3S)-3-benzyl-5-oxo-1,9-dioxa-4-azaspiro[5.5]undecan-4-yl]-N-(cyclopentylmethyl)-2-hydroxy-N-(4-methoxyphenyl)propane-1-sulfonamido] | 23 |
| COc1ccc(S(=O)(=O)N(CC2CCCC2)C[C@@H](O)CN2C(=O)COC[C@@H]2Cc2ccccc2)cc1 | 1000 |
